IC50 and GI50 data for 22 compounds are collected here from the Kinase Knowledgebase extract (Sharma et al. 2016).

Values joined by “and” are separate entries in the source; they are usually repeats but may differ in a detail not shown here. Equal values may be shown once.

The first assay has as its target CDK2 (human) (UniProt P24941). As to the kind of experiment: Enzyme Assay.
Settings: not given
As to `CN1CC[C@@H](c2c(O)cc(O)c3c(=O)cc(C4CCCCC4Cl)oc23)[C@@H](O)C1` (stereo partly specified), the concentration for half-maximal inhibition (IC50) (commonly the midpoint of a concentration-inhibition curve) is 0.2 µM and 0.06 µM. For the compound `CCn1cnc2c(NCc3ccc(Cl)cc3)nc(N[C@H]3CCCC[C@H]3N)nc21`, the IC50 amounted to 1 µM. On to `CC(C)n1cnc2c(NCc3ccc(-c4ccccc4)cc3)nc(NC[C@H](C)NC(=O)OC(C)(C)C)nc21`, for which the half-inhibitory concentration (IC50) is 4 µM and 11 µM.

The target of another assay is CDK2;CDK1 (human) (UniProt P24941). As to the kind of experiment: Cell-Based Assay. Particulars: hela-s3.
Regarding `CCN[C@H]1CC[C@H](Nc2nc(NCc3ccc(-c4ccccc4)cc3)c3ncn(C(C)C)c3n2)CC1`, the concentration for 50% growth inhibition (GI50) (usually the concentration at which growth is held to half of that of the control) is 2 µM and 0.9 µM. On to `CCN(C(C)=O)[C@H]1CC[C@H](Nc2nc(NCc3ccc(-c4ccccc4)cc3)c3ncn(C(C)C)c3n2)CC1`, for which the concentration for 50% growth inhibition (GI50) is 0.6 µM and 0.8 µM.

In the case of `CC(C)n1cnc2c(NCc3ccc(-c4ccccc4)cc3)nc(N[C@H]3CC[C@H](NC(=O)C4CC4)CC3)nc21`, the GI50 is 0.3 µM.

For `CCn1cnc2c(NCc3ccc(Cl)cc3)nc(N[C@H]3CCCC[C@H]3N)nc21`, the concentration for 50% growth inhibition (GI50) came to 3 µM. Same read-out and setting: in the case of `CCCCN[C@H]1CC[C@H](Nc2nc(NCc3ccc(-c4ccccc4)cc3)c3ncn(C(C)C)c3n2)CC1` it was 0.5 µM and 0.3 µM; in that of `CC(C)n1cnc2c(NCc3ccc(-c4ccccc4)cc3)nc(N[C@H]3CC[C@H](NCC4CC4)CC3)nc21`, 0.3 µM. `CC(C)n1cnc2c(NCc3ccc(-c4ccccc4)cc3)nc(N[C@H]3CC[C@H](NS(C)(=O)=O)CC3)nc21`: the GI50 is 0.2 µM and 0.1 µM.

In turn, `CC(C)n1cnc2c(NCc3ccc(-c4ccccc4)cc3)nc(N[C@H]3CC[C@H](N(CC4CC4)CC4CC4)CC3)nc21` came in with a 50% growth inhibitory concentration (GI50) of 0.03 µM. For `CC(C)n1cnc2c(NCc3ccc(-c4ccccc4)cc3)nc(NCCN)nc21`, the 50% growth inhibitory concentration (GI50) was 0.2 µM and 0.4 µM.

In the case of `CC(C)n1cnc2c(NCCc3ccc(-c4ccsc4)cc3)nc(N[C@H]3CC[C@H](NC(=O)OC(C)(C)C)CC3)nc21`, the GI50 was > 10 µM and 7 µM. As to `CC(C)n1cnc2c(NCc3ccc(-c4ccccc4)cc3)nc(N[C@H]3CC[C@H](NS(=O)(=O)C(F)(F)F)CC3)nc21`, the GI50 is 3 µM and 2 µM and 4 µM. In the case of `CC(C)n1cnc2c(NCc3ccc(-c4ccccc4)cc3)nc(NC[C@H](C)NC(=O)OC(C)(C)C)nc21`, the GI50 was 0.3 µM and 0.1 µM.

`COC(=O)N[C@H]1CC[C@H](Nc2nc(NCc3ccc(-c4ccccc4)cc3)c3ncn(C(C)C)c3n2)CC1`: the GI50 is 0.7 µM and 0.4 µM and 0.3 µM. Consider `CCC(=O)N[C@H]1CC[C@H](Nc2nc(NCc3ccc(-c4ccccc4)cc3)c3ncn(C(C)C)c3n2)CC1`, for which the concentration for 50% growth inhibition (GI50) is 0.2 µM and 0.4 µM and 0.3 µM. With `CC(C)n1cnc2c(NCc3ccc(-c4ccccc4)cc3)nc(N3CCC(C(N)=O)CC3)nc21`, the GI50 was 5 µM and 3 µM. For `COc1cccc(-c2ccc(CNc3nc(N[C@H]4CC[C@H](NC(C)=O)CC4)nc4c3ncn4C(C)C)cc2)c1`, the 50% growth inhibitory concentration (GI50) is 0.3 µM and 0.4 µM. On to `CC(=O)NCCNc1nc(NCc2ccc(-c3ccccc3)cc2)c2ncn(C(C)C)c2n1`, for which the concentration for 50% growth inhibition (GI50) is 3 µM and 4 µM. For `CC(C)n1cnc2c(NCc3ccc(-c4ccccc4)cc3)nc(NCCCN)nc21`, the concentration for 50% growth inhibition (GI50) is 0.3 µM and 0.6 µM. For the compound `CC(=O)N[C@H]1CC[C@H](Nc2nc(NCc3ccc(-c4cccc(C)c4)cc3)c3ncn(C(C)C)c3n2)CC1`, the GI50 was 0.4 µM and 0.2 µM.

On to `CC(C)n1cnc2c(NCc3ccc(-c4ccccc4)cc3)nc(N[C@H]3CC[C@H](N4C(=O)CCC4=O)CC3)nc21`, for which the GI50 was 0.3 µM and 0.2 µM and 0.5 µM. `CC(C)n1cnc2c(NCc3ccc(-c4ccccc4)cc3)nc(N3CCC(N)C3)nc21` (stereo unspecified) yielded a 50% growth inhibitory concentration (GI50) of 0.5 µM.

The target in another assay is CDK2 (human) (UniProt P24941). As to the kind of experiment: Enzyme Assay.
Settings: not given
This is another data set of the same source.
Take `CCn1cnc2c(NCc3ccc(Cl)cc3)nc(N[C@H]3CCCC[C@H]3N)nc21`: the concentration for half-maximal inhibition (IC50) was 0.1 µM. With `CC(C)n1cnc2c(NCc3ccc(-c4ccccc4)cc3)nc(NC[C@H](C)NC(=O)OC(C)(C)C)nc21`, the IC50 was 3 µM and 1 µM.
